Results reported in ChEMBL document CHEMBL1201862, “PubChem BioAssay data set” (2004).
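Five compound concentrations were applied to cells in 96-well plates for 48 hours; endpoints were derived by simple linear interpolation of the resulting dose-response curve. GI50 marks 50% less growth.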 Active and inactive are the calls of the source. Rule as the data show it: active = GI50 up to about 1.1 µM and inactive = higher.

Assays:
Experiment in all cases: growth of human tumour cells (NCI), 48 h
OVCAR-3 = system: OVCAR-3
SK-MEL-5 = system: SK-MEL-5
NCI-H460 = system: NCI-H460
Hs-578T = system: Hs-578T
SNB-19 = system: SNB-19
NCI-H23 = system: NCI-H23
MDA-N = system: MDA-N
SF-539 = system: SF-539
TK-10 = system: TK-10
Malme-3M = system: Malme-3M
MDA-MB-435 = system: MDA-MB-435
UACC-257 = system: UACC-257
COLO 205 = system: COLO 205
A498 = system: A498
HOP-62 = system: HOP-62
M14 = system: M14
SK-OV-3 = system: SK-OV-3
IGROV-1 = system: IGROV-1
T47D = system: T47D
HOP-92 = system: HOP-92
HCT-116 = system: HCT-116
OVCAR-5 = system: OVCAR-5
CCRF-CEM = system: CCRF-CEM
K562 = system: K562
NCI-H522 = system: NCI-H522
HT-29 = system: HT-29
MCF7 = system: MCF7
CAKI-1 = system: CAKI-1
ACHN = system: ACHN
RXF 393 = system: RXF 393
HL-60 = system: HL-60
HCT-15 = system: HCT-15
SNB-75 = system: SNB-75
LOX IMVI = system: LOX IMVI
SR = system: SR
UACC-62 = system: UACC-62
OVCAR-4 = system: OVCAR-4
DU-145 = system: DU-145
NCI-H226 = system: NCI-H226
BT-549 = system: BT-549
RPMI-8226 = system: RPMI-8226
SW-620 = system: SW-620
HCC 2998 = system: HCC 2998
UO-31 = system: UO-31
EKVX = system: EKVX
KM12 = system: KM12
SF-268 = system: SF-268
786-0 = system: 786-0
MOLT-4 = system: MOLT-4
A549 = system: A549
SF-295 = system: SF-295
PC-3 = system: PC-3
SK-MEL-28 = system: SK-MEL-28
OVCAR-8 = system: OVCAR-8
U-251 = system: U-251
SN12C = system: SN12C
NCI/ADR-RES = system: NCI/ADR-RES
SK-MEL-2 = system: SK-MEL-2
MDA-MB-231 = system: MDA-MB-231

CCN(CC)c1c(N(CC)CC)c(=O)c1=O
GI50 (OVCAR-3): 9.71 µM (inactive)
GI50 (SK-MEL-5): 17.4 µM (inactive)
GI50 (NCI-H460): 39.5 µM (inactive)
GI50 (Hs-578T): 21.7 µM (inactive)
GI50 (SNB-19): > 63.8 µM (inactive)
GI50 (NCI-H23): 10.6 µM (inactive)
GI50 (MDA-N): 16.3 µM (inactive)
GI50 (SF-539): 8.05 µM (inactive)
GI50 (TK-10): 2.82 µM (inactive)
GI50 (Malme-3M): 3.25 µM (inactive)
GI50 (MDA-MB-435): 20.7 µM (inactive)
GI50 (UACC-257): 9.48 µM (inactive)
GI50 (COLO 205): 2.63 µM (inactive)
GI50 (A498): 22.6 µM (inactive)
GI50 (HOP-62): 29.9 µM (inactive)
GI50 (M14): 16.7 µM (inactive)
GI50 (SK-OV-3): > 100 µM (inactive)
GI50 (IGROV-1): 2.81 µM (inactive)
GI50 (T47D): 3.18 µM (inactive)
GI50 (HOP-92): 3.94 µM (inactive)
GI50 (HCT-116): 8.07 µM (inactive)
GI50 (OVCAR-5): 18 µM (inactive)
GI50 (CCRF-CEM): 3.53 µM (inactive)
GI50 (K562): 6.12 µM (inactive)
GI50 (NCI-H522): 2.14 µM (inactive)
GI50 (HT-29): 2.42 µM (inactive)
GI50 (MCF7): 11.2 µM (inactive)
GI50 (CAKI-1): 4.27 µM (inactive)
GI50 (ACHN): 3.18 µM (inactive)
GI50 (RXF 393): 11.3 µM (inactive)
GI50 (HL-60): 2.23 µM (inactive)
GI50 (HCT-15): 3.67 µM
GI50 (SNB-75): 30.3 µM (inactive)
GI50 (LOX IMVI): 11.8 µM (inactive)
GI50 (SR): 24.8 µM (inactive)
GI50 (UACC-62): 18.2 µM (inactive)
GI50 (OVCAR-4): 18.9 µM (inactive)
GI50 (DU-145): 9.31 µM (inactive)
GI50 (NCI-H226): 17.2 µM (inactive)
GI50 (BT-549): 19.1 µM (inactive)
GI50 (RPMI-8226): 1.88 µM (inactive)
GI50 (SW-620): 4.16 µM (inactive)
GI50 (HCC 2998): 20.3 µM (inactive)
GI50 (UO-31): 5.32 µM (inactive)
GI50 (EKVX): 14.9 µM (inactive)
GI50 (KM12): 22.6 µM (inactive)
GI50 (SF-268): 26.1 µM (inactive)
GI50 (786-0): 5.35 µM (inactive)
GI50 (MOLT-4): 3.1 µM (inactive)
GI50 (A549): 22.5 µM (inactive)
GI50 (SF-295): > 88.9 µM (inactive)
GI50 (PC-3): 17.9 µM (inactive)
GI50 (SK-MEL-28): 17.4 µM (inactive)
GI50 (OVCAR-8): 10.3 µM (inactive)
GI50 (U-251): 22.9 µM (inactive)
GI50 (SN12C): 9.1 µM (inactive)
GI50 (NCI/ADR-RES): 24.4 µM (inactive)
GI50 (SK-MEL-2): 22.5 µM (inactive)
GI50 (MDA-MB-231): 7.55 µM (inactive)

C#C[C@]1(O)CC[C@H]2[C@@H]3CCC4=C/C(=N\OCCN5CCCC5)CC[C@]4(C)[C@H]3CC[C@@]21C
GI50 (OVCAR-3): 10.9 µM (inactive)
GI50 (SK-MEL-5): 3.67 µM (inactive)
GI50 (NCI-H460): 17.7 µM (inactive)
GI50 (Hs-578T): 6.25 µM (inactive)
GI50 (SNB-19): 15.3 µM (inactive)
GI50 (NCI-H23): 12 µM (inactive)
GI50 (MDA-N): 3.25 µM (inactive)
GI50 (SF-539): 7.46 µM (inactive)
GI50 (TK-10): 17.1 µM (inactive)
GI50 (Malme-3M): 10.8 µM (inactive)
GI50 (MDA-MB-435): 3 µM (inactive)
GI50 (UACC-257): 8.13 µM (inactive)
GI50 (COLO 205): 13.7 µM (inactive)
GI50 (A498): 18.7 µM (inactive)
GI50 (HOP-62): 10.9 µM (inactive)
GI50 (M14): 9.82 µM (inactive)
GI50 (SK-OV-3): 19.5 µM (inactive)
GI50 (IGROV-1): 4.79 µM (inactive)
GI50 (T47D): 16.1 µM (inactive)
GI50 (HOP-92): 29.1 µM (inactive)
GI50 (HCT-116): 8.36 µM (inactive)
GI50 (OVCAR-5): 19.2 µM (inactive)
GI50 (CCRF-CEM): 14.6 µM (inactive)
GI50 (K562): 5.12 µM (inactive)
GI50 (NCI-H522): 3.57 µM (inactive)
GI50 (HT-29): 12.7 µM (inactive)
GI50 (MCF7): 4.72 µM (inactive)
GI50 (CAKI-1): 12.4 µM (inactive)
GI50 (ACHN): 17 µM (inactive)
GI50 (RXF 393): 13.5 µM (inactive)
GI50 (HL-60): 5.35 µM (inactive)
GI50 (HCT-15): 13.2 µM
GI50 (SNB-75): 10.8 µM (inactive)
GI50 (LOX IMVI): 11.5 µM (inactive)
GI50 (SR): 2.96 µM (inactive)
GI50 (UACC-62): 10.4 µM (inactive)
GI50 (OVCAR-4): 20.6 µM (inactive)
GI50 (DU-145): 19 µM (inactive)
GI50 (NCI-H226): 20.6 µM (inactive)
GI50 (BT-549): 16.3 µM (inactive)
GI50 (RPMI-8226): 3.34 µM (inactive)
GI50 (SW-620): 13.5 µM (inactive)
GI50 (HCC 2998): 16.6 µM (inactive)
GI50 (UO-31): 15.7 µM (inactive)
GI50 (EKVX): 12.9 µM (inactive)
GI50 (KM12): 5.36 µM (inactive)
GI50 (SF-268): 13.5 µM (inactive)
GI50 (786-0): 7.11 µM (inactive)
GI50 (MOLT-4): 6.14 µM (inactive)
GI50 (A549): 15.7 µM (inactive)
GI50 (SF-295): 3.72 µM (inactive)
GI50 (PC-3): 6.28 µM (inactive)
GI50 (SK-MEL-28): 14.9 µM (inactive)
GI50 (OVCAR-8): 17.1 µM (inactive)
GI50 (U-251): 17.3 µM (inactive)
GI50 (SN12C): 16.7 µM (inactive)
GI50 (NCI/ADR-RES): 9.95 µM (inactive)
GI50 (SK-MEL-2): 9.18 µM (inactive)
GI50 (MDA-MB-231): 19.2 µM (inactive)
